One may read the Ki as a dissociation constant, usually derived from enzyme kinetics or from competition with a known ligand. The low end stands for higher affinity, the high end for lower affinity.

Chain of Apoptosis regulator Bcl-2 (Homo sapiens) (P10415 whole entry, looked up): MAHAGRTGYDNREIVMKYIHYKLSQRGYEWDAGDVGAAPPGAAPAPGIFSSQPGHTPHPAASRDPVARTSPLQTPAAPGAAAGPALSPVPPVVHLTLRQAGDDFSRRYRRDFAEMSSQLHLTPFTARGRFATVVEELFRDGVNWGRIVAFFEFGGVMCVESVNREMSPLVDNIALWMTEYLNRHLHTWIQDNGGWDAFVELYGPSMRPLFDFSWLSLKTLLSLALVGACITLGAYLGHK

This assay concerns the target Apoptosis regulator Bcl-2 (Homo sapiens) (UniProt P10415). As to the kind of experiment: Binding affinity to Bcl-2 (unknown origin) by fluorescence polarization competition assay. For orientation: In fluorescence polarisation assays a small probe gives low polarisation when free and higher when bound to something large.
Compound `O=C(O)c1ccccc1-c1cccc2c1ccn2CCCOc1cccc2ccccc12` yielded a Ki of 4530 nM.
In the case of `Cc1cccc(-c2cn(CCCOc3cccc4ccccc34)c3cccc(-c4ccccc4C(=O)O)c23)c1` it was 560 nM; in that of `O=C(O)c1ccccc1-c1cccc2c1c(-c1cccc(C(F)(F)F)c1)cn2CCCOc1cccc2ccccc12`, 2550 nM; in that of `O=C(O)c1ccc(Cl)cc1-c1cccc2c1ccn2CCCOc1cccc2ccccc12`, 490 nM.
In the case of `Cc1cccc(-c2cn(CCOc3cccc4ccccc34)c3cccc(-c4ccccc4C(=O)O)c23)c1` it was 360 nM; in that of `O=C(O)c1ccccc1-c1cccc2c1c(-c1cccc(C(F)(F)F)c1)cn2CCOc1cccc2ccccc12`, 250 nM.
For `O=C(O)c1ccccc1-c1cccc2c1c(-c1cccc(Cl)c1)cn2CCOc1cccc2ccccc12`, the affinity corresponds to a Ki of 3210 nM.
`Cc1ccccc1-c1cn(CCOc2cccc3ccccc23)c2cccc(-c3ccccc3C(=O)O)c12` showed an inhibition constant (Ki) of 250 nM.
In the case of `Cc1ccc(-c2cn(CCOc3cccc4ccccc34)c3cccc(-c4ccccc4C(=O)O)c23)cc1` it was 870 nM.
In the case of `CCc1ccccc1-c1cn(CCOc2cccc3ccccc23)c2cccc(-c3ccccc3C(=O)O)c12` it was 300 nM; in that of `CC(C)c1ccccc1-c1cn(CCOc2cccc3ccccc23)c2cccc(-c3ccccc3C(=O)O)c12`, 1740 nM; in that of `COc1ccccc1-c1cn(CCOc2cccc3ccccc23)c2cccc(-c3ccccc3C(=O)O)c12`, 820 nM.
In the case of `Cc1cccc(-c2cn(CCOc3cccc4ccccc34)c3cccc(-c4ccccc4C(=O)O)c23)c1C` it was 1300 nM; in that of `Cc1ccc(-c2cn(Cc3cccc4ccccc34)c3cccc(-c4ccccc4C(=O)O)c23)cc1`, 800 nM; in that of `Cc1cccc(-c2cn(Cc3cccc4ccccc34)c3cccc(-c4ccccc4C(=O)O)c23)c1`, 1800 nM.
Regarding `Cc1ccccc1-c1cn(Cc2cccc3ccccc23)c2cccc(-c3ccccc3C(=O)O)c12`, the Ki turned out to be 660 nM.
In the case of `COc1ccccc1-c1cn(Cc2cccc3ccccc23)c2cccc(-c3ccccc3C(=O)O)c12` it was 1280 nM; in that of `O=C(O)c1ccccc1-c1cccc2c1c(-c1cccc(Cl)c1)cn2Cc1cccc2ccccc12`, 100 nM.
In the case of `O=C(O)c1ccccc1-c1cccc2c1c(-c1cccc(C(F)(F)F)c1)cn2Cc1cccc2ccccc12` it was 1080 nM.
In the case of `COc1cccc(-c2cn(Cc3cccc4ccccc34)c3cccc(-c4ccccc4C(=O)O)c23)c1` it was 530 nM; in that of `O=C(O)c1ccccc1-c1cccc2c1c(-c1ccccc1)cn2Cc1cccc2ccccc12`, 820 nM.

The values are drawn from BindingDB's records for doi:10.1016/j.bmcl.2021.128215 (Shenyang Pharmaceutical University, 2021).
